Where two headings read alike, the source gives them in different places. Marks after values point to notes of the source that are not given here.
Columns and labels:
Sphaerotheca fuliginea = assay: In vivo preventive test on Sphaerotheca fuliginea (powdery mildew on cucurbits); settings: gherkin plants, preventive spray, evaluated 15 days after inoculation
Description: (§1) The young plants of gherkin are treated by spraying the active ingredient prepared as described above. Control plants are treated only with an aqueous solution of acetone/Dimethyl sulfoxide/Tween®. After 24 hours, the plants are contaminated by spraying the leaves with an aqueous suspension of Sphaerotheca fuliginea spores.

Botrytis cinerea = assay: In vivo preventive test on Botrytis cinerea (grey mould); settings: gherkin plants, preventive spray, evaluated 4 to 5 days after inoculation
Description: as §1, with “Botrytis cinerea” for “Sphaerotheca fuliginea”, “spores. The contaminated gherkin plants are incubated for 4 to 5 days at 17° C. and at 90% relative humidity.” for “spores.”

Septoria tritici = assay: In vivo preventive test on Septoria tritici (leaf spot on wheat); settings: wheat plants, preventive spray, evaluated 24 days after inoculation
Description: as §1, with “wheat” for “gherkin”, “Septoria tritici” for “Sphaerotheca fuliginea”

Uromyces appendiculatus = assay: In vivo preventive test on Uromyces appendiculatus (bean rust); settings: bean plants, preventive spray, evaluated 11 days after inoculation
Description: as §1, with “bean” for “gherkin”, “Uromyces appendiculatus” for “Sphaerotheca fuliginea”

[1] = tested on: Blumeria graminis fsp. hordei; assay: Blumeria test (barley)/preventive; type: in vivo; settings: 500 ppm of active ingredient, preventive, evaluated 7 days after inoculation
Description: (§2) Solvent: 49 parts by weight of N,N-dimethylacetamide Emulsifier: 1 part by weight of alkylaryl polyglycol ether To produce a suitable preparation of active compound, 1 part by weight of active compound or active compound combination is mixed with the stated amounts of solvent and emulsifier, and the concentrate is diluted with water to the desired concentration. To test for preventive activity, young plants are sprayed with the preparation of active compound or active compound combination at the stated rate of application. After the spray coating has been dried, the plants are dusted with spores of Blumeria graminis fsp. hordei. The plants are placed in the greenhouse at a temperature of approximately 18° C. and a relative atmospheric humidity of approximately 80% to promote the development of mildew pustules.

Fusarium graminearum = type: in vivo; settings: 500 ppm of active ingredient; barley, preventive; evaluated 5 days after inoculation
Fusarium culmorum = assay: Fusarium culmorum-test (wheat)/preventive; type: in vivo; settings: 500 ppm of active ingredient, preventive, evaluated 5 days after inoculation
Description: Solvent: 49 parts by weight of N,N-dimethylacetamide
Emulsifier: 1 part by weight of alkylaryl polyglycol ether
To produce a suitable preparation of active compound, 1 part by weight of active compound or active compound combination is mixed with the stated amounts of solvent and emulsifier, and the concentrate is diluted with water to the desired concentration.
To test for preventive activity, young plants are sprayed with the preparation of active compound or active compound combination at the stated rate of application. After the spray coating has been dried, the plants are slightly injured by using a sandblast and afterwards they are sprayed with a conidia suspension of Fusarium culmorum.
The plants are placed in the greenhouse under a translucent incubation cabinet at a temperature of approximately 22° C. and a relative atmospheric humidity of approximately 100%.
The test is evaluated 5 days after the inoculation. 0% means an efficacy which corresponds to that of the untreated control, while an efficacy of 100% means that no disease is observed.

Pyricularia oryzae [2] = type: in vivo; settings: 500 ppm of active ingredient; rice, preventive; evaluated 8 days after inoculation
Puccinia recondita = assay: In vivo preventive test on Puccinia recondita (brown rust on wheat); settings: wheat plants, preventive spray, evaluated 11 days after inoculation
Description: as §1, with “wheat” for “gherkin”, “Puccinia recondita” for “Sphaerotheca fuliginea”

[3] = tested on: Fusarium nivale (var. majus); assay: Fusarium nivale (var. majus)-test (wheat)/preventive; type: in vivo; settings: 500 ppm of active ingredient, preventive, evaluated 5 days after inoculation
Description: as §2, with “slightly injured by using a sandblast and afterwards they are sprayed” for “dusted”, “a conidia suspension” for “spores”, “Fusarium nivale (var. majus).” for “Blumeria graminis fsp. hordei. The plants are placed in the greenhouse at a temperature of approximately 18° C. and a relative atmospheric humidity of approximately 80% to promote the development of mildew pustules.”

Leptosphaeria nodorum = Leptosphaeria nodorum test (wheat)/preventive; type: in vivo; settings: 500 ppm of active ingredient, preventive, evaluated 8 days after inoculation
Description: as §2, with “sprayed” for “dusted”, “a spore suspension” for “spores”, “Leptosphaeria nodorum. […]” for “Blumeria graminis fsp. hordei.”, “22°” for “18°”, “80%.” for “80% to promote the development of mildew pustules.”

Pyrenophora teres = assay: In vivo preventive test on Pyrenophora teres (net blotch on barley); settings: barley plants, preventive spray, evaluated 14 days after inoculation
Description: as §1, with “barley” for “gherkin”, “Pyrenophora teres” for “Sphaerotheca fuliginea”

physchem = settings: pH 2.7
Podosphaera leucotricha = assay: Podosphaera test (apples)/preventive; type: in vivo; settings: 100 ppm of active ingredient, preventive, evaluated 10 days after inoculation
Description: (§3) Solvent: 24.5 parts by weight of acetone • 24.5 parts by weight of dimethylacetamide Emulsifier: 1 part by weight of alkylaryl polyglycol ether To produce a suitable preparation of active compound, 1 part by weight of active compound is mixed with the stated amounts of solvent and emulsifier, and the concentrate is diluted with water to the desired concentration. To test for preventive activity, young plants are sprayed with the preparation of active compound at the stated rate of application. After the spray coating has dried on, the plants are inoculated with an aqueous spore suspension of the causal agent of apple mildew (Podosphaera leucotricha). The plants are then placed in a greenhouse at approximately 23° C. and a relative atmospheric humidity of approximately 70%.

Phakopsora pachyrhizi = assay: Phakopsora test (soybeans)/preventive; type: in vivo; settings: preventive, evaluated 7 days after inoculation
Pyricularia oryzae [4] = type: in vivo; settings: 500 ppm of active ingredient; rice plants, preventive spray; evaluated 6 days after inoculation
Venturia inaequalis = assay: Venturia test (apples)/preventive; type: in vivo; settings: 100 ppm of active ingredient, preventive, evaluated 10 days after inoculation
Description: as §3, with “After the spray coating has dried on, the plants are inoculated with an aqueous spore suspension of the causal agent of apple mildew (Podosphaera leucotricha).” left out, “21°” for “23°”, “90%.” for “70%.”

With `CCC(C)(C)C(O)(Cc1ccncc1F)Cn1cncn1` (stereo not shown) [Example I-7] the Eff. % (Sphaerotheca fuliginea; 100 ppm of active ingredient) was 100%, the Eff. % (Botrytis cinerea; 100 ppm of active ingredient) was 97% and the Eff. % (Septoria tritici; 100 ppm of active ingredient) was 81%. It also gave an Eff. % (Uromyces appendiculatus; 100 ppm of active ingredient) of 100%, an Eff. % [1] of 100% and an Eff. % (Fusarium graminearum) of 100%. The Eff. % (Fusarium culmorum) was 100%, the LogP (method [a]: LC-MS at pH 2.7, 0.1% formic acid in water / acetonitrile gradient) was 1.73^[a] and the Eff. % (Pyricularia oryzae [2]) was 89%. The Eff. % (Puccinia recondita; 100 ppm of active ingredient) was 81%, the Eff. % [3] was 100% and the Eff. % (Leptosphaeria nodorum) was 100%.

`CCC(C)(C)C(O)(Cc1ccncc1Cl)Cn1cncn1` (stereo not shown) [Example I-5] showed an Eff. % (Sphaerotheca fuliginea; 100 ppm of active ingredient) of 100%, an Eff. % (Botrytis cinerea; 100 ppm of active ingredient) of 89% and an Eff. % (Septoria tritici; 100 ppm of active ingredient) of 97%. For the same compound, the Eff. % (Uromyces appendiculatus; 100 ppm of active ingredient) was 100%, the Eff. % [1] was 100% and the Eff. % (Fusarium graminearum) was 100%. The Eff. % (Fusarium culmorum) was 100%, the LogP (pH 2.7) was 2.13^[a] and the Eff. % (Pyrenophora teres; 100 ppm of active ingredient) was 83%. For the same compound, the Eff. % (Pyricularia oryzae [2]) was 93%, the Eff. % (Puccinia recondita; 100 ppm of active ingredient) was 90% and the Eff. % [3] was 100%. The Eff. % (Leptosphaeria nodorum) was 100%.

In the case of `CC(C)(C)C1(Cc2ccncc2Cl)CO1` (stereo not shown) [XII-5, 4-[(2-tert-butyloxiran-2-yl)methyl]-3-chloropyridine], the chromatographic logP (physchem) is reported as 2.8.

`CC(C)(C)C(O)(Cc1cccnc1Cl)Cn1cncn1` (stereo not shown) [Example I-3] gave an Eff. % (Sphaerotheca fuliginea; 500 ppm of active ingredient) of 100%, an Eff. % (Botrytis cinerea; 500 ppm of active ingredient) of 100% and an Eff. % (Septoria tritici; 500 ppm of active ingredient) of 100%. It also gave an Eff. % (Podosphaera leucotricha) of 100%, an Eff. % (Uromyces appendiculatus; 500 ppm of active ingredient) of 100% and an Eff. % [1] of 100%. The Eff. % (Phakopsora pachyrhizi; 100 ppm of active ingredient) was 100%, the Eff. % (Fusarium graminearum) was 100% and the Eff. % (Fusarium culmorum) was 100%. For the same compound, the LogP (pH 2.7) was 1.94, the LogP (pH 7.8) was 1.90 and the Eff. % (Pyricularia oryzae [2]) was 75%. For the same compound, the Eff. % (Puccinia recondita; 500 ppm of active ingredient) was 97%, the Eff. % (Pyricularia oryzae [4]) was 88% and the Eff. % (Venturia inaequalis) was 100%. It also gave an Eff. % [3] of 100% and an Eff. % (Leptosphaeria nodorum) of 100%.

Compound `CC(C)(C)C(O)(Cc1ccnc(Cl)c1F)Cn1cncn1` (stereo not shown) [Example I-27] has an Eff. % (Sphaerotheca fuliginea; 500 ppm of active ingredient) of 100%, an Eff. % (Botrytis cinerea; 500 ppm of active ingredient) of 100% and an Eff. % (Septoria tritici; 500 ppm of active ingredient) of 97%. For the same compound, the Eff. % (Uromyces appendiculatus; 500 ppm of active ingredient) was 100%, the Eff. % [1] was 100% and the Eff. % (Phakopsora pachyrhizi; 10 ppm of active ingredient) was 75%. The Eff. % (Fusarium graminearum) was 100%, the Eff. % (Fusarium culmorum) was 100% and the LogP (pH 2.7) was 2.16^[a]. The Eff. % (Pyrenophora teres; 500 ppm of active ingredient) was 97%, the Eff. % (Puccinia recondita; 500 ppm of active ingredient) was 98% and the Eff. % [3] was 100%. It also gave an Eff. % (Leptosphaeria nodorum) of 88%.

With `CC(C)(C)C(O)(Cc1ccncc1Cl)Cn1cncn1` (stereo not shown) [Example I-4, 1-(3-chloropyridin-4-yl)-3,3-dimethyl-2-(1H-1,2,4-triazol-1-ylmethyl)butan-2-ol] the Eff. % (Sphaerotheca fuliginea; 100 ppm of active ingredient) was 100%, the Eff. % (Uromyces appendiculatus; 100 ppm of active ingredient) was 100% and the Eff. % [1] was 100%. It also gave an Eff. % (Phakopsora pachyrhizi; 100 ppm of active ingredient) of 99%, a chromatographic logP (physchem; reversed phase HPLC columns) of 1.74 and an Eff. % (Fusarium graminearum) of 92%. For the same compound, the Eff. % (Fusarium culmorum) was 93%, the Eff. % (Pyrenophora teres; 100 ppm of active ingredient) was 83% and the Eff. % (Puccinia recondita; 100 ppm of active ingredient) was 88%. For the same compound, the Eff. % (Venturia inaequalis) was 94%, the Eff. % [3] was 100% and the Eff. % (Leptosphaeria nodorum) was 88%.

In the case of `CC(C)(C)C(O)(Cc1cc(F)ncc1Cl)Cn1cncn1` (stereo not shown) [Example I-29], the Eff. % (Sphaerotheca fuliginea; 500 ppm of active ingredient) is reported as 100%, the Eff. % (Botrytis cinerea; 500 ppm of active ingredient) is reported as 100% and the Eff. % (Septoria tritici; 500 ppm of active ingredient) is reported as 100%. For the same compound, the Eff. % (Uromyces appendiculatus; 500 ppm of active ingredient) was 100%, the Eff. % [1] was 100% and the Eff. % (Phakopsora pachyrhizi; 10 ppm of active ingredient) was 78%. The Eff. % (Fusarium graminearum) was 100%, the Eff. % (Fusarium culmorum) was 100% and the LogP (pH 2.7) was 2.39^[a]. For the same compound, the Eff. % (Pyrenophora teres; 500 ppm of active ingredient) was 93%, the Eff. % (Pyricularia oryzae [2]) was 71% and the Eff. % (Puccinia recondita; 500 ppm of active ingredient) was 100%. It also gave an Eff. % [3] of 100% and an Eff. % (Leptosphaeria nodorum) of 100%.

With `CC(C)(C)C(=O)Cc1cccnc1Cl` [Example V-4, 1-(2-chloropyridin-3-yl)-3,3-dimethylbutan-2-one] the chromatographic logP (physchem) was 2.34.

Work on `CC(C)(C)C(O)(Cc1ccncc1F)Cn1cncn1` (stereo not shown) [Example I-6] yielded an Eff. % (Sphaerotheca fuliginea; 100 ppm of active ingredient) of 100%, an Eff. % (Botrytis cinerea; 100 ppm of active ingredient) of 100% and an Eff. % (Septoria tritici; 100 ppm of active ingredient) of 98%. For the same compound, the Eff. % (Uromyces appendiculatus; 100 ppm of active ingredient) was 100%, the Eff. % [1] was 100% and the Eff. % (Phakopsora pachyrhizi; 100 ppm of active ingredient) was 99%. For the same compound, the Eff. % (Fusarium graminearum) was 100%, the Eff. % (Fusarium culmorum) was 100% and the LogP (pH 2.7) was 1.41^[a]. For the same compound, the Eff. % (Pyricularia oryzae [2]) was 94%, the Eff. % (Puccinia recondita; 100 ppm of active ingredient) was 88% and the Eff. % (Venturia inaequalis) was 96%. It also gave an Eff. % [3] of 100% and an Eff. % (Leptosphaeria nodorum) of 100%.

— US9668481B2, “Triazole derivatives” (priority 2013, dated 2017)
